Results on 35 compounds are retold here after US20100029620A1, “SUBSTITUTED TRIAZOLINE, TETRAZOLONE AND IMIDAZOLONE DERIVATIVES FOR USE AS A MEDICINE” (JANSSEN PHARMACEUTICA N.V., priority 2004, published 2010).

SMILES strings stand for the structures.

Experiment [1] deals with T1, human adrenergic-α2A receptor (Homo sapiens, UniProt P08913).
T1 construct: expressed in transfected cells; membrane preparation
T1 sequence (P08913 1-465): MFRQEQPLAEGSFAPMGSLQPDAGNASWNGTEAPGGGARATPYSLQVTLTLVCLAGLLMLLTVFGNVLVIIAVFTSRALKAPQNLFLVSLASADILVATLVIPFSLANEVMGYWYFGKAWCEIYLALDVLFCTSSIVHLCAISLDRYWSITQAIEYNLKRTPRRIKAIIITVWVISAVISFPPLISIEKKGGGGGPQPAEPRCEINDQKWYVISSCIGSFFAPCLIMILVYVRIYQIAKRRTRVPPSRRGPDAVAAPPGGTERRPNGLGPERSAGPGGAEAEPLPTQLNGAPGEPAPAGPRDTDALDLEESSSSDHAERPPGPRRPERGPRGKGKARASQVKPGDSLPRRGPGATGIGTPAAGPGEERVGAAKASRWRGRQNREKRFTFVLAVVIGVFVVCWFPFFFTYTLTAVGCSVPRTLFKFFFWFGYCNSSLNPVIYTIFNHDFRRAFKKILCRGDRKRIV
The experiment is described as follows: Radioligand binding experiment for α2A-adrenoceptor ([3H]-raulwolscine competition, CHO cell membranes). Conditions: [3H]raulwolscine 1 nM, membranes of CHO cells transfected with human α2A receptor; read-out: pIC50 α2A (converted). The procedure, abridged: (§1)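 CHO cell membranes stably expressing human α2A, α2B or α2C receptor were incubated with 1 nM [3H]-raulwolscine ± test compound, 60 min at 25° C in glycylglycine 25 mM, pH 8.0, then filtered and counted. Nonspecific binding: 1 μM oxymetazoline (α2A, α2B) or 1 μM spiroxatrine (α2C). pIC50 from nonlinear regression of % total binding.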

In experiment [2] the target is T2, human adrenergic-α2B receptor (Homo sapiens, UniProt P18089).
T2 construct: expressed in transfected cells; membrane preparation
T2 sequence (P18089 1-450): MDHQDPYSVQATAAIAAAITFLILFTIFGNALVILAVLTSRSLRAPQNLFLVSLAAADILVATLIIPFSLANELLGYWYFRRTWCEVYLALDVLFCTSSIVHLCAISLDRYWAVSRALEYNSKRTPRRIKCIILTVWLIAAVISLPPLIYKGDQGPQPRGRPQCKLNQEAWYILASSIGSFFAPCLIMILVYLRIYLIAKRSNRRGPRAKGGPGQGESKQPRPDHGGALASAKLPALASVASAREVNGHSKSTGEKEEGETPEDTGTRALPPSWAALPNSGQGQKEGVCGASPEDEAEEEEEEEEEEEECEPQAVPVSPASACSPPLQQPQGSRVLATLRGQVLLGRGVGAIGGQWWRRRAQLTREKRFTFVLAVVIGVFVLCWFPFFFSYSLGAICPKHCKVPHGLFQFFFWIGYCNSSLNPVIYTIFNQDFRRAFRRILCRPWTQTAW
The experiment is described as follows: Radioligand binding experiment for α2B-adrenoceptor ([3H]-raulwolscine competition, CHO cell membranes). The conditions noted are these: [3H]raulwolscine 1 nM, membranes of CHO cells transfected with human α2B receptor; for IC50: read-out: pIC50 α2B (converted). The procedure, abridged: as §1

In experiment [3] the target is T3, human adrenergic-α2C receptor (Homo sapiens, UniProt P18825).
T3 construct: expressed in transfected cells; membrane preparation
T3 sequence (P18825 1-462): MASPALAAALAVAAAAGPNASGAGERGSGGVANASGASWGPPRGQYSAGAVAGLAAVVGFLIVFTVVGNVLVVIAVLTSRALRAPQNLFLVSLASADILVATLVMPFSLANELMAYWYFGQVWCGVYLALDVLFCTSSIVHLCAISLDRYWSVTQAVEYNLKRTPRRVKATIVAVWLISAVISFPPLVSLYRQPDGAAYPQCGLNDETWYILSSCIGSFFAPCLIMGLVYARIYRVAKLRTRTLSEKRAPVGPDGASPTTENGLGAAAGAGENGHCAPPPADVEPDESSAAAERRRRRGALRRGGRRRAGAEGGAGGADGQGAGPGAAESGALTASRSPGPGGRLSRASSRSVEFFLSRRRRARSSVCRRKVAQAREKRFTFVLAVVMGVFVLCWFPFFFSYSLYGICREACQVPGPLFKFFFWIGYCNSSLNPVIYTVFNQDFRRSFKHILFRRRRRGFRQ
The experiment is described as follows: Radioligand binding experiment for α2C-adrenoceptor ([3H]-raulwolscine competition, CHO cell membranes). Conditions: [3H]raulwolscine 1 nM, membranes of CHO cells transfected with human α2C receptor; read-out: pIC50 α2C (converted). In short, it runs like this: as §1

Turning to `O=c1n(-c2ccc(N3CCCCC3)cc2)cnn1CC1CCN(CCOc2ccccc2)CC1` [compound 63], the IC50 in experiment [1] was 158 nM; in experiment [2], 31.6 nM; in experiment [3], 5.01 nM.

Turning to `O=c1n(-c2ccc(CN3CCCCC3)cc2)cnn1CC1CCN(CCOc2ccccc2)CC1` [compound 64], the IC50 in experiment [1] was 50.1 nM; in experiment [2], 12.6 nM; in experiment [3], 0.631 nM.

With `O=c1n(-c2ccc(CN3CCC(O)CC3)cc2)cnn1CC1CCN(CCOc2ccccc2)CC1` [compound 65], the IC50 in experiment [1] is 79.4 nM; in experiment [2], 20 nM; in experiment [3], 1.26 nM.

As to `O=c1n(CC2CCN(CCOc3ccccc3)CC2)cnn1CCN1CCCCC1` [compound 66], the figures for the IC50 in experiment [1], in experiment [2] and in experiment [3] were 39.8 nM, 50.1 nM and 2.51 nM, respectively.

As to `O=c1n(CC2CCN(CCOc3ccccc3)CC2)cnn1CCN1CCOCC1` [compound 67], the IC50 is 398 nM in experiment [1], 100 nM in experiment [2] and 25.1 nM in experiment [3].

Regarding `O=c1n(-c2ccc(CN3CCC(N4CCCC4)CC3)cc2)cnn1CC1CCN(CCOc2ccccc2)CC1` [compound 68], the IC50 in experiment [1] is 39.8 nM; in experiment [2], 7.94 nM; in experiment [3] it was 2.51 nM.

Consider `O=c1n(CCN2CCOCC2)cnn1CC1CCN(CCOc2ccccc2)CC1` [compound 71], for which the IC50 was 251 nM in experiment [1], 251 nM in experiment [2] and 20 nM in experiment [3].

For `O=c1n(-c2ccc(N3CCOCC3)cc2)cnn1CC1CCN(CCOc2ccccc2)CC1` [compound 72], the IC50 was 158 nM in experiment [1], 25.1 nM in experiment [2] and 7.94 nM in experiment [3].

On to `O=c1n(-c2ccc(CN3CCOCC3)cc2)cnn1CC1CCN(CCOc2ccccc2)CC1` [compound 73], for which the IC50 is 158 nM in experiment [1], 39.8 nM in experiment [2] and 1.58 nM in experiment [3].

Take `C/C(=C\c1ccccc1)CN1CCC(n2cnn(CCN3CCCCC3)c2=O)CC1` [compound 79]: the IC50 in experiment [1] was 398 nM; in experiment [2] it was 631 nM; in experiment [3], 31.6 nM.

As to `O=C1c2ccccc2C(=O)N1CCCn1ncn(CC2CCN(CCOc3ccccc3)CC2)c1=O` [compound 82], the IC50 in experiment [1] was 12.6 nM; in experiment [2], 15.8 nM; in experiment [3] it was 1 nM.

In the case of `C/C(=C\c1ccccc1)CN1CCC(n2cnn(CCCN3C(=O)c4ccccc4C3=O)c2=O)CC1` [compound 83], the IC50 in experiment [1] is 316 nM; in experiment [2], 50.1 nM; in experiment [3] it was 5.01 nM.

In the case of `O=C1c2ccccc2C(=O)N1CCCn1cnn(CC2CCN(CCOc3ccccc3)CC2)c1=O` [compound 84], the IC50 in experiment [1] was 25.1 nM; in experiment [2] it was 20 nM; in experiment [3] it was 0.631 nM.

As to `NCc1ccc(Cn2cnn(CCNCCOc3ccccc3)c2=O)cc1` [compound 85], the IC50 in experiment [1] is 126 nM; in experiment [2], 126 nM; in experiment [3], 6.31 nM.

For `CN(C)CCNc1ccc(-n2cnn(CCNCCOc3ccccc3)c2=O)cc1` [compound 86], the values for the IC50 in experiment [1], in experiment [2] and in experiment [3] were 39.8 nM, 31.6 nM and 1 nM, respectively.

With `CN(C)CCNc1ccc(-n2cnn(CCNCCOc3ccccc3)c2=O)cc1` [compound 87], the IC50 in experiment [1] was 31.6 nM; in experiment [3] it was 1.26 nM. Moreover, the “pIC50 α2B” value in experiment [2] was found to be 7.5.

Regarding `O=c1n(-c2ccc(NCCN3CCCC3)cc2)cnn1CCNCCOc1ccccc1` [compound 88], the IC50 in experiment [1] is 39.8 nM; in experiment [2] it was 39.8 nM; in experiment [3], 2 nM.

In the case of `O=c1n(-c2ccc(NCc3ccc(F)cc3)cc2)cnn1CCNCCOc1ccccc1` [compound 89], the IC50 in experiment [1] was 251 nM; in experiment [2], 126 nM; in experiment [3], 2 nM.

Consider `O=c1n(-c2ccc(CNCCc3ccccc3)cc2)cnn1CCNCCOc1ccccc1` [compound 90], for which the IC50 in experiment [1] was 20 nM; in experiment [2], 50.1 nM; in experiment [3] it was 0.631 nM.

For `O=c1n(-c2ccc(CNCc3ccc(F)cc3)cc2)cnn1CCNCCOc1ccccc1` [compound 91], the IC50 was 31.6 nM in experiment [1], 79.4 nM in experiment [2] and 5.01 nM in experiment [3].

With `O=c1n(-c2ccc(CNCc3ccccc3)cc2)cnn1CCNCCOc1ccccc1` [compound 92], the IC50 is 25.1 nM in experiment [1], 200 nM in experiment [2] and 5.01 nM in experiment [3].

In the case of `O=c1n(-c2ccc(CNCC3CCCO3)cc2)cnn1CCNCCOc1ccccc1` (stereo not drawn) [compound 93], the IC50 in experiment [1] was 50.1 nM; in experiment [2], 126 nM; in experiment [3], 1.26 nM.

As for `CN(Cc1ccccc1)Cc1ccc(-n2cnn(CCNCCOc3ccccc3)c2=O)cc1` [compound 94], the results for the IC50 in experiment [1], in experiment [2] and in experiment [3] were 31.6 nM, 126 nM and 3.16 nM, respectively.

Consider `O=c1n(-c2ccc(CNCCN3CCCCC3)cc2)cnn1CCNCCOc1ccccc1` [compound 95], for which the results for the IC50 in experiment [1], in experiment [2] and in experiment [3] were 15.8 nM, 126 nM and 1.58 nM, respectively.

For `O=c1n(-c2ccc(CNCc3ccccn3)cc2)cnn1CCNCCOc1ccccc1` [compound 96], the values for the IC50 in experiment [1], in experiment [2] and in experiment [3] were 39.8 nM, 200 nM and 3.16 nM, respectively.

As to `O=c1n(-c2ccc3c(c2)CCNC3)cnn1CCNCCOc1ccccc1` [compound 97], the IC50 in experiment [1] was 50.1 nM; in experiment [2] it was 251 nM; in experiment [3], 2 nM.

`O=c1n(-c2ccc3c(c2)CCN(CC2CCCCC2)C3)cnn1CCNCCOc1ccccc1` [compound 98]: the IC50 was 501 nM in experiment [1], 251 nM in experiment [2] and 20 nM in experiment [3].

In the case of `O=c1n(-c2ccc3c(c2)CCN(Cc2ccc(F)cc2)C3)cnn1CCNCCOc1ccccc1` [compound 99], the IC50 in experiment [1] was 251 nM; in experiment [2], 200 nM; in experiment [3], 10 nM.

For `CC(=O)N1CCc2cc(-n3cnn(CCNCCOc4ccccc4)c3=O)ccc2C1` [compound 100], the IC50 was 631 nM in experiment [1], 398 nM in experiment [2] and 10 nM in experiment [3].

Regarding `CS(=O)(=O)N1CCc2cc(-n3cnn(CCNCCOc4ccccc4)c3=O)ccc2C1` [compound 101], the IC50 in experiment [1] is 631 nM; in experiment [2], 251 nM; in experiment [3], 7.94 nM.

For the compound `O=c1n(-c2ccc3c(c2)CCN(CCN2CCCC2)C3)cnn1CCNCCOc1ccccc1` [compound 102], the IC50 was 79.4 nM in experiment [1], 251 nM in experiment [2] and 3.16 nM in experiment [3].

As for `CC(C)N1CCc2cc(-n3cnn(CCNCCOc4ccccc4)c3=O)ccc2C1` [compound 103], the IC50 in experiment [1] is 501 nM; in experiment [2], 794 nM; in experiment [3] it was 25.1 nM.

Take `O=c1n(CC2CCN(CCOc3ccccc3)CC2)nnn1-c1ccc(CN2CCOCC2)cc1` [compound 104]: the values for the IC50 in experiment [1], in experiment [2] and in experiment [3] were 63.1 nM, 79.4 nM and 5.01 nM, respectively.

With `O=c1n(CCNCCOc2ccccc2)nnn1-c1ccc(CN2CCC(O)CC2)cc1` [compound 107], the values for the IC50 in experiment [1], in experiment [2] and in experiment [3] were 501 nM, 398 nM and 20 nM, respectively.

Turning to `C/C(=C\c1ccccc1)CN1CCC(n2ncn(-c3ccc(CN4C(=O)c5ccccc5C4=O)cc3)c2=O)CC1` [compound 109], the IC50 was 31.6 nM in experiment [1], 39.8 nM in experiment [2] and 2 nM in experiment [3].
